Reference: PubChem BioAssay AID1963840 (Molecular Pharmacology Branch, DTP, NCI, 2024)

System: 695427-040-R-J1-PDC complex spheroid viability
Test: Anticancer human tumor 695427-040-R-J1-PDC patient-derived colon adenocarcinoma cell line growth inhibition [POLQ]
Conditions: for IC50: curve of first compound; for viability, T/C: stronger effect = lower value
How it was run: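 PDC + HUVEC + MSC complex spheroids; POLQ inhibitors ± partner drugs; top conc. at/near clinical Cmax, else 10 microM (SN-38 1 microM), half-log dilutions; 37 degrees C, 5% CO2.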
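Further: spheroids exposed to compounds for seven days.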
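Wherever viability, T/C is given: 100% = DMSO vehicle control viability.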

Cn1ncnc1[C@H]1c2n[nH]c(=O)c3cc(F)cc(c23)N[C@@H]1c1ccc(F)cc1 + Nc1ccc(C#CCN(C(=O)Cc2ncc(C(F)(F)F)cc2C(F)(F)F)c2ccc(F)cc2)nn1
IC50 (second compound 0.0316 µM): > 100 nM | IC50 (second compound 0.1 µM): > 100 nM | IC50 (second compound 0.316 µM): > 100 nM | IC50 (second compound 1 µM): > 100 nM | IC50 (second compound 3.16 µM): > 100 nM | IC50 (second compound 10 µM): > 100 nM | viability, T/C (second compound 0.0316 µM, first compound 0.000316 µM): 109% | viability, T/C (second compound 0.0316 µM, first compound 0.001 µM): 103% | viability, T/C (second compound 0.0316 µM, first compound 0.00316 µM): 109% | viability, T/C (second compound 0.0316 µM, first compound 0.01 µM): 103% | viability, T/C (second compound 0.0316 µM, first compound 0.0316 µM): 111% | viability, T/C (second compound 0.0316 µM, first compound 0.1 µM): 95.1% | viability, T/C (second compound 0.1 µM, first compound 0.000316 µM): 100% | viability, T/C (second compound 0.1 µM, first compound 0.001 µM): 122% | viability, T/C (second compound 0.1 µM, first compound 0.00316 µM): 109% | viability, T/C (second compound 0.1 µM, first compound 0.01 µM): 104% | viability, T/C (second compound 0.1 µM, first compound 0.0316 µM): 108% | viability, T/C (second compound 0.1 µM, first compound 0.1 µM): 88.4% | viability, T/C (second compound 0.316 µM, first compound 0.000316 µM): 110% | viability, T/C (second compound 0.316 µM, first compound 0.001 µM): 109% | viability, T/C (second compound 0.316 µM, first compound 0.00316 µM): 88.5% | viability, T/C (second compound 0.316 µM, first compound 0.01 µM): 102% | viability, T/C (second compound 0.316 µM, first compound 0.0316 µM): 110% | viability, T/C (second compound 0.316 µM, first compound 0.1 µM): 105% | viability, T/C (second compound 1 µM, first compound 0.000316 µM): 107% | viability, T/C (second compound 1 µM, first compound 0.001 µM): 102% | viability, T/C (second compound 1 µM, first compound 0.00316 µM): 104% | viability, T/C (second compound 1 µM, first compound 0.01 µM): 99.7% | viability, T/C (second compound 1 µM, first compound 0.0316 µM): 119% | viability, T/C (second compound 1 µM, first compound 0.1 µM): 92.8% | viability, T/C (second compound 3.16 µM, first compound 0.000316 µM): 105% | viability, T/C (second compound 3.16 µM, first compound 0.001 µM): 100% | viability, T/C (second compound 3.16 µM, first compound 0.00316 µM): 104% | viability, T/C (second compound 3.16 µM, first compound 0.01 µM): 103% | viability, T/C (second compound 3.16 µM, first compound 0.0316 µM): 108% | viability, T/C (second compound 3.16 µM, first compound 0.1 µM): 89% | viability, T/C (second compound 10 µM, first compound 0.000316 µM): 102% | viability, T/C (second compound 10 µM, first compound 0.001 µM): 90.9% | viability, T/C (second compound 10 µM, first compound 0.00316 µM): 99% | viability, T/C (second compound 10 µM, first compound 0.01 µM): 88.1% | viability, T/C (second compound 10 µM, first compound 0.0316 µM): 102% | viability, T/C (second compound 10 µM, first compound 0.1 µM): 86.1%
